{"source": "patent US20030027856A1", "about": "“Tolterodine metabolites” (priority 2001, published 2003)"}
{"test_system": "not listed separately", "assay": "Cardiac side effects: QTc interval of the EKG in anesthetized guinea pigs", "format": "in vivo", "conditions": "guinea pig, intravenous infusion over 30 min", "experimental": "Male guinea pigs (450-600 g) are anesthetized with freshly prepared dialurethane sodium. The jugular vein is catheterized for iv administration of test drugs and the trachea is exposed and cannulated. Subdermal electrodes are positioned for Lead II electrocardiogram recording, monitored on a Grass Polygraph recorder, set at a paper speed of 50 mm/sec. The animals are allowed to stabilize for 30 minute after completion of surgery, and three baseline EKG recordings are then made at 10-minute intervals. The animals are then given a dose of the test compound or vehicle as an intravenous infusion over 30 min. EKG recordings are used to determine QT intervals and heart rates. To compensate for variations in heart rates, QTc intervals are calculated from QT- and RR-intervals as known to those skilled in the art. Prolongation of QTc is indicative of a prolonged action potential, caused by an inhibition of the delayed rectifier potassium channel. Prolongation of QTc is the known cause of Torsades de Pointes ventricular fibrillation by drugs such as terfenadine, astemizole and terodiline (now withdrawn from the market)."}
{"smiles": "CC(C)N(CC[C@H](c1ccccc1)c1cc(CO)ccc1O)C(C)C", "note": "[5-HM, R(+)-N,N-diisopropyl-3-(2-hydroxy-5-(hydroxymethyl)phenyl)-3-phenylpropylamine]", "prolongation of the QTc-interval of the EKG": "did not cause a prolongation of the QTc interval"}
{"smiles": "Cc1ccc(O)c([C@H](CCNC(C)C)c2ccccc2)c1", "note": "[DES-TOLT, R(+)-N-isopropyl-3-(2-hydroxy-5-methylphenyl)-3-phenylpropylamine]", "prolongation of the QTc-interval of the EKG": "did not cause a prolongation of the QTc interval"}
{"smiles": "CC(C)N(CCC(c1ccccc1)c1cc(CO)ccc1O)C(C)C", "note": "(centres unmarked) [RS-5-HM, RS-N,N-diisopropyl-3-(2-hydroxy-5-(hydroxymethyl)phenyl)-3-phenylpropylamine]", "prolongation of the QTc-interval of the EKG": "did not cause a prolongation of the QTc interval"}
{"smiles": "Cc1ccc(O)c(C(CCNC(C)C)c2ccccc2)c1", "note": "(centres unmarked) [RS-DES-TOLT, RS-N-Isopropyl-3-(2-hydroxy-5-methylphenyl)-3-phenylpropylamine]", "prolongation of the QTc-interval of the EKG": "did not cause a prolongation of the QTc interval"}
{"smiles": "Cc1ccc(O)c(C(CCN(C(C)C)C(C)C)c2ccccc2)c1", "note": "(centres unmarked) [RS-TOLT, RS-N,N-diisopropyl-3-(2-hydroxy-5-methylphenyl)-3-phenylpropylamine, reference compound]", "prolongation of the QTc-interval of the EKG": "cause a prolongation of the QTc-interval"}
{"smiles": "Cc1ccc(O)c([C@H](CCN(C(C)C)C(C)C)c2ccccc2)c1", "note": "[TOLT, R(+)-N,N-diisopropyl-3-(2-hydroxy-5-methylphenyl)-3-phenylpropylamine]", "prolongation of the QTc-interval of the EKG": "cause a prolongation of the QTc-interval"}
{"test_system": "muscarinic receptors", "assay": "Functional characterization of antimuscarinic activities on smooth muscle strips", "set-up": "species or system guinea pig", "conditions": "pharmacological studies in comparison with tolterodine", "experimental": "Experiments are performed using methods similar to those described by Kachur et al, 1988 (R and S enantiomers of oxybutynin: Pharmacological effects in guinea pig bladder and intestine. J Pharmacol Exp Ther 247: 867-872) and Noronha-Blob and Kachur, 1991 (Enantiomers of Oxybutynin: In vitro pharmacological characterization at M1, M2 and M3 muscarinic receptors and in vivo effects on urinary bladder contraction, mydriasis and salivary secretion in guinea pigs. J Pharmacol Exp Ther 256: 562-567). Strips of tissue (approximately 10 mm long and 1.5 mm wide) are removed from the body of the urinary bladder of male guinea pigs weighing 400-600 g. […] Contractions are recorded with transducers on a polygraph.\nThe present series of experiments focuses on the anticholinergic actions of DES-TOLT, and RS-DES-TOLT and their metabolites. In these experiments, in order to assess the viability of each tissue and to serve as a frame of reference, contractions of each strip of tissue are recorded initially in response to exposure to tissue medium in which NaCl is replaced by KCl to yield a concentration of 137.7 mM KCl in the medium. This is followed by return to the standard medium, and then by exposures to progressively in creasing concentrations of carbachol, with separate exposures to each concentration only until the peak response has been recorded. […]"}
{"smiles": "CC(C)NCC[C@H](c1ccccc1)c1cc(CO)ccc1O", "note": "[5-HM-DES-TOLT, R(+)-N-Isopropyl-3-(2-hydroxy-5-(hydroxymethyl)phenyl)-3-phenylpropylamine]", "antimuscarinic activities": "potent antimuscarinic activities"}
{"smiles": "Cc1ccc(O)c([C@H](CCNC(C)C)c2ccccc2)c1", "note": "[DES-TOLT, R(+)-N-isopropyl-3-(2-hydroxy-5-methylphenyl)-3-phenylpropylamine]", "antimuscarinic activities": "potent antimuscarinic activities"}
